Assay results taken from patent US20020037931A1, “Substituted nitrated catechols, their use in the treatment of some central and peripheral nervous system disorders and pharmaceutical compositions containing them” (priority 2000, published 2002).

Columns and labels:
COMT [1] = experiment: Ex vivo brain COMT activity after administration by gastric tube; format: in vivo, rat; conditions: for COMT activity (% of control), Brain: rat brain homogenate
COMT [2] = experiment: Ex vivo liver COMT activity after administration by gastric tube; format: in vivo; conditions: rat liver homogenate
COMT [3] = experiment: COMT activity (methylation of adrenaline to metanephrine) in rat liver homogenates; format: biochemical; conditions: rat liver homogenate; test compound 3 μM; means±SEM, n=4-8
COMT [4] = experiment: COMT activity (methylation of adrenaline to metanephrine) in rat brain homogenates; format: biochemical; conditions: rat brain homogenate; test compound 100 nM; means±SEM, n=4-8
COMT [5] = target: T1, COMT (Homo sapiens, UniProt P21964); experiment: COMT activity in intact SK-N-SH cell monolayers; format: cell-based; conditions: SK-N-SH cells; test compound 100 nM; means±SEM, n=4-8
T1 construct: COMT activity was evaluated in cell monolayers by the ability to methylate adrenaline; host or cells: SK-N-SH cells
T1 sequence (P21964 1-271): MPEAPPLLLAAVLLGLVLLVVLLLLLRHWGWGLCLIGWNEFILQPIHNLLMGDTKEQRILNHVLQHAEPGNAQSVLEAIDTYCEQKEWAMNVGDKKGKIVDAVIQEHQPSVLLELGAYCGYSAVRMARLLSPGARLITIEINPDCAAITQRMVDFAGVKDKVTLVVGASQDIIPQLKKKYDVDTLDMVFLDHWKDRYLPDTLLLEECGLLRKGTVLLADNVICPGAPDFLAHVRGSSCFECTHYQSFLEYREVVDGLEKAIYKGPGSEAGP

[6] = 0.5 h after administration by gastric tube
[7] = 1 h after administration by gastric tube
[8] = 3 h after administration by gastric tube
[9] = 6 h after administration by gastric tube
[10] = 9 h after administration by gastric tube

| SMILES | COMT activity, Liver (% of control) (COMT [3]) | COMT activity, Brain (% of control) (COMT [4]) | COMT activity, SK-N-SH (% of control) (COMT [5]) | also measured |
| --- | --- | --- | --- | --- |
| CCCC(=O)Oc1ccc(C(=O)c2ccccc2)c([N+](=O)[O-])c1OC(=O)CCC [Compound 20, Butyric Acid, 3-Benzoyl-6-butyryloxy-2-nitro-phenyl Ester] | 0.6 ± 0.0 % of control | 3 ± 0 % of control | 0 ± 0 % of control | COMT activity (% of control), Brain (COMT [1]; [6]): 25.8 ± 4.3 % of control; COMT activity (% of control), Brain (COMT [1]; [7]): 31.4 ± 3.0 % of control; COMT activity (% of control), Brain (COMT [1]; [8]): 49.4 ± 5.3 % of control; COMT activity (% of control), Brain (COMT [1]; [9]): 81.3 ± 3.7 % of control; COMT activity (% of control), Brain (COMT [1]; [10]): 72.8 % of control; inhibition of brain COMT (in words) (COMT [1]; after oral administration, rat): potent inhibitors of brain COMT; inhibitory profile brain COMT versus liver COMT (in words) (COMT [1]; after oral administration, rat, brain compared with liver): much more potent upon brain COMT than liver COMT; access to the brain / activity in the periphery (in words) (COMT [1]; conclusion from ex vivo COMT inhibition, rat): enhanced access to the brain and limited activity in the periphery; COMT activity (% of control), Liver (COMT [2]; [6]): 57.9 ± 4.7 % of control; COMT activity (% of control), Liver (COMT [2]; [7]): 64.4 ± 5.0 % of control; COMT activity (% of control), Liver (COMT [2]; [8]): 66.5 ± 7.8 % of control; COMT activity (% of control), Liver (COMT [2]; [9]): 94.5 ± 0.3 % of control; COMT activity (% of control), Liver (COMT [2]; [10]): 110.1 % of control |
| CC(=O)Oc1cc2c(c([N+](=O)[O-])c1OC(C)=O)C(=O)C(C)(C)CC2 [Compound 25, Acetic Acid, 3-Acetoxy-7,7-dimethyl-1-nitro-8-oxo-5,6,7,8-tetrahydro-naphthalen-2-yl Ester] | 1.7 ± 0.1 % of control | 19 ± 1 % of control | 39 ± 1 % of control | – |
| COc1ccc(C=C2CCc3cc(O)c(O)c([N+](=O)[O-])c3C2=O)cc1OC [Compound 4, 2-(3,4-Dimethoxy-benzylidene)-6,7-dihydroxy-8-nitro-3,4-dihydro-2H-naphthalen-1-one] | 2.0 ± 1.0 % of control | 20 ± 2 % of control | 25 ± 1 % of control | – |
| O=C(CCN1CCC(Cc2ccccc2)CC1)c1ccc(O)c(O)c1[N+](=O)[O-] [Compound 36, 3-(4-benzyl-piperidin-1-yl)-1-(3,4-Dihydroxy-2-nitro-phenyl)-propan-1-one] | 2.2 ± 0.4 % of control | 6 ± 0 % of control | 9 ± 2 % of control | – |
| CN(C)c1ccc(C=C2Cc3cc(O)c(O)c([N+](=O)[O-])c3C2=O)cc1 [Compound 8, 2-(4-dimethylamino-benzylidene)-5,6-dihydroxy-7-nitro-indan-1-one] | 1.0 ± 0.1 % of control | 30 ± 4 % of control | 48 ± 3 % of control | – |
| CCOC(=O)Oc1ccc(C(=O)CCc2ccccc2)c([N+](=O)[O-])c1OC(=O)OCC [Compound 22, Carbonic acid, 2-ethoxycarbonyloxy-3-nitro-4-(3-phenyl-propionyl)-phenyl ester ethyl ester] | 0.3 ± 0.1 % of control | 9 ± 0 % of control | 12 ± 1 % of control | – |
| O=C(CCCc1ccccc1)c1ccc(O)c(O)c1[N+](=O)[O-] [Compound 15, 1-(3,4-dihydroxy-2-nitro-phenyl)4-phenyl-butan-1-one] | 0.5 ± 0.0 % of control | 7 ± 2 % of control | 13 ± 4 % of control | – |
| O=C1CCc2cc(O)c(O)c([N+](=O)[O-])c21 [Compound 2, 5,6-Dihydroxy-7-nitro-indan-1-one] | 1.3 ± 0.7 % of control | 9 ± 1 % of control | 24 ± 1 % of control | – |
| CCCC(=O)Oc1ccc(C(=O)CCCc2ccccc2)c([N+](=O)[O-])c1OC(C)=O [Compound 50, Acetic acid, 6-butyryloxy-2-nitro-3-(4-phenyl-butyryl)-phenyl ester] | 0.6 ± 0.5 % of control | 0 ± 0 % of control | 2 ± 1 % of control | – |
| CCCC(=O)Oc1ccc(C(=O)CCc2ccccc2)c([N+](=O)[O-])c1OC(=O)CCC [Compound 19, Butyric acid, 6-butyryloxy-2-nitro-3-(3-phenyl-propionyl)-phenyl ester] | 0.2 ± 0.1 % of control | 8 ± 1 % of control | 0 ± 0 % of control | – |
| CCOC(=O)Oc1ccc(C(=O)c2ccccc2)c([N+](=O)[O-])c1OC(=O)OCC [Compound 21, Carbonic acid, 4-benzoyl-2-ethoxycarbonyloxy-3-nitro-phenyl ester ethyl ester] | 0.3 ± 0.2 % of control | 11 ± 1 % of control | 1 ± 1 % of control | – |
| CCCN1CCN(CCC(=O)c2ccc(O)c(O)c2[N+](=O)[O-])CC1 [Compound 39, 1-(3,4-Dihydroxy-2-nitro-phenyl)-3-(4-propyl-piperazin-1-yl)-propan-1-one] | 0.8 ± 0.2 % of control | 8 ± 0 % of control | 11 ± 0 % of control | – |
| CCOC(=O)Oc1cc(C(=O)c2ccccc2)c(C(=O)c2ccccc2)c([N+](=O)[O-])c1OC(=O)OCC [Compound 23, Carbonic Acid 4,5-Dibenzoyl-2-ethoxycarbonyloxy-3-nitro-phenyl Ester Ethyl Ester] | 2.5 ± 1.2 % of control | 10 ± 1 % of control | 24 ± 1 % of control | – |
| CN(C)c1ccc(C=C2CCc3cc(O)c(O)c([N+](=O)[O-])c3C2=O)cc1 [Compound 9, 2-(4-Dimethylamino-benzylidene)-6,7-dihydroxy-8-nitro-3,4-dihydro-2H-naphthalen-1-one] | 9.0 ± 1.6 % of control | 47 ± 5 % of control | 8 ± 1 % of control | – |
| O=C1CCCc2cc(O)c(O)c([N+](=O)[O-])c21 [Compound 1, 6,7-Dihydroxy-8-nitro-3,4-dihydro-2H-naphthalen-1-one] | 1.2 ± 0.2 % of control | 15 ± 4 % of control | 46 ± 1 % of control | – |
| COc1ccc(N2CCN(CCC(=O)c3ccc(O)c(O)c3[N+](=O)[O-])CC2)cc1 [Compound 37, 1-(3,4-Dihydroxy-2-nitro-phenyl)-3-[4-(4-methoxy-phenyl)-piperazin-1-yl]-propan-1-one] | 1.7 ± 0.3 % of control | 6 ± 0 % of control | 6 ± 2 % of control | – |
| O=C1c2c(cc(O)c(O)c2[N+](=O)[O-])CC1CN1CCOCC1 (stereo not shown) [Compound 29, 5,6-Dihydroxy-2-morpholin-4-ylmethyl-7-nitro-indan-1-one] | 0.6 ± 0.0 % of control | 12 ± 1 % of control | 21 ± 1 % of control | – |
| CCCC(=O)Oc1ccc(C(=O)Cc2ccccc2)c([N+](=O)[O-])c1OC(=O)CCC [Compound 47, Butyric acid, 6-butyryloxy-2-nitro-3-phenylacetyl-phenyl ester] | 0.6 ± 0.2 % of control | 0 ± 0 % of control | 1 ± 1 % of control | – |
| O=C1c2c(cc(O)c(O)c2[N+](=O)[O-])CC1CN1CCN(c2cccc(C(F)(F)F)c2)CC1 (stereo not shown) [Compound 43, 5,6-Dihydroxy-7-nitro-2-[4-(3-trifluoromethyl-phenyl)-piperazin-1-ylmethyl]-indan-1-one] | 0.9 ± 0.2 % of control | 10 ± 1 % of control | 19 ± 7 % of control | – |
| O=C(CCN1CCCCC1)c1ccc(O)c(O)c1[N+](=O)[O-] [Compound 27, 1-(3,4-Dihydroxy-2-nitro-phenyl)-3-piperidin-1-yl-propan-1-one] | 2.4 ± 0.2 % of control | 15 ± 1 % of control | 5 ± 1 % of control | – |
| CC(=O)Oc1ccc(C(=O)Cc2ccccc2)c([N+](=O)[O-])c1OC(C)=O [Compound 45, Acetic acid, 6-acetoxy-2-nitro-3-phenylacetyl-phenyl ester] | 0.7 ± 0.2 % of control | 0 ± 0 % of control | 7 ± 3 % of control | – |
| O=C1C(=Cc2ccc(O)c(O)c2)CCc2cc(O)c(O)c([N+](=O)[O-])c21 [Compound 13, 2-(3,4-Dihydroxy-benzylidene)-6,7-dihydroxy-8-nitro-3,4-dihydro-2H-naphthalen-1-one] | 2.3 ± 0.1 % of control | 27 ± 1 % of control | 46 ± 1 % of control | – |
